Values of other authors in PMC12805357, “Cooperative ligand binding in a bacterial heme-based oxygen sensor” (The Journal of Biological Chemistry, 2025).

What was measured:
[1] = sperm whale myoglobin
[2] = set-up: method as in earlier work; details: myoglobins; ref 7 of the supplement (Faulkner et al., 1995)

sperm whale myoglobin (swMb): sperm whale myoglobin, literature comparison protein
n (Hill coefficient), O2 binding [1]: 0.95 ± 0.05 | Kd ([1]; read-out: Kd, equilibrium oxygen affinity): 830 to 1500 nM | Midpoint 1 (mV vs SHE) [2]: 47 mV vs SHE
